For one data set, the target named is T1, bovine COX-1 (Bos taurus, UniProt O62664).
T1 construct: purchased Cayman Chemicals
T1 sequence (O62664 25-600): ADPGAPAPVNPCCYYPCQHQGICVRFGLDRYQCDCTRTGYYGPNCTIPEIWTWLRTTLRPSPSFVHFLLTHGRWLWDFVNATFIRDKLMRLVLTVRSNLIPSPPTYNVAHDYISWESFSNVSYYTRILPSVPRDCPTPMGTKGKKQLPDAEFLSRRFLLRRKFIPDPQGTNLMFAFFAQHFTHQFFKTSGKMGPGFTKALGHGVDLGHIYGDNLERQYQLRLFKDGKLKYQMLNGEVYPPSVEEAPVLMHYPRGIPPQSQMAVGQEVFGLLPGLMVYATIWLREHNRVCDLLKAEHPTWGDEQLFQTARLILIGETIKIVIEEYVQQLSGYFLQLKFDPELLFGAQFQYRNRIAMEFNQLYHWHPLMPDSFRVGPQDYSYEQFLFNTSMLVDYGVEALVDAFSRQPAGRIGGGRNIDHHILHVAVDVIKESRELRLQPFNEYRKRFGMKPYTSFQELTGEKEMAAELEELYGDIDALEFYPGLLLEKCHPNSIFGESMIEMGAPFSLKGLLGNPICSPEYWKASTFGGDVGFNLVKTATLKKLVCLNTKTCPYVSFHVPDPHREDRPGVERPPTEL
The data set is described as follows: Activity of isolated COX-1. The class given is biochemical. The method, then:
Purified bovine COX-1 (Cayman Chemicals; 50 units) or human recombinant COX-2 (Cayman Chemicals; 20 units) in 100 mM Tris buffer pH 8, 5 mM glutathione, 5 µM hemoglobin, and 100 µM EDTA were pre-incubated with LCMs for 5 min at 4 °C followed by 1 min at 37 °C. Formation of COX-derived 12(S)-hydroxy-5-cis-8,10-trans-heptadecatrienoic acid (12-HHT) was initiated by addition of AA (COX-1: 5 μM; COX-2: 2 μM).

The target in another data set is T2, COX-1 (Homo sapiens, UniProt P23219).
T2 construct: Freshly isolated human platelets (1 × 10^8) were pre-incubated with LCMs; endogenous in cells; host or cells: washed human platelets
The data set is described as follows: COX-1 activity (12-HHT formation) in washed platelets. The class given is cell-based. The method, then: Freshly isolated human platelets (1 × 10^8) were pre-incubated with LCMs for 5 min at room temperature. Formation of COX-1-derived 12-HHT was initiated by addition of exogenous AA (5 µM).

The subject of another data set is intracellular Ca^2+. The data set is described as follows: Intracellular Ca2+ in fMLP-stimulated PMNL. The class given is cell-based, human. On the procedure: PMNL (1 × 10^6) were incubated with Fura-2/AM (Thermo Fisher Scientific; 2 nmol) for 45 min at 37 °C, washed, resuspended in PBS pH 7.4 plus 1 mg/ml glucose and transferred to fluorescene 96-well microplates (Greiner). After pre-incubation with compounds for 10 min, 1 mM Ca^2+ was added, and cells were stimulated with fMLP (1 µM) for another 10 min. Intracellular Ca^2+ concentrations were determined using a thermally (37 °C) controlled NOVOstar fluorescence microplate reader [BMG Labtech, Ortenberg, Germany; emission at 510 nm, excitation at 340 nm (Ca^2+-bound Fura-2) and 380 nm (free Fura-2)][17]. The maximal fluorescence signal was recorded after lysis of […] with Triton X-100, and the minimal fluorescence was assessed by adding 20 mM EDTA to chelate Ca^2+. The difference in the signal ratio obtained with Triton X-100 and Triton X-100 plus 20 mM EDTA was set to 100% for each experiment.

A further data set concerns PMNL. The data set is described as follows: Uptake of vitamin E metabolites by PMNL. The class given is in vitro ADME, human. The note with it: 150 nM, 20 min; calculated for spherical PMNL, diameter 13 µm. On the procedure: Freshly isolated PMNL (1 × 10^7/ml) were suspended in PBS pH 7.4 containing 1 mg/ml glucose. […] LCMs were extracted and analyzed by UPLC-MS/MS using γ-TE-13′-COOH (4g; 12.5 pmol) as internal standard. Intracellular vitamin E metabolite concentrations were calculated assuming spherical cell shape, an equal intracellular distribution, and an average diameter of 13 µm (as determined using a Vi-CELL Series Cell Counter, Beckman Coulter, Krefeld, Germany).

Another data set has as its target T3, 5-LO (Homo sapiens, UniProt P09917).
T3 sequence (P09917 1-674): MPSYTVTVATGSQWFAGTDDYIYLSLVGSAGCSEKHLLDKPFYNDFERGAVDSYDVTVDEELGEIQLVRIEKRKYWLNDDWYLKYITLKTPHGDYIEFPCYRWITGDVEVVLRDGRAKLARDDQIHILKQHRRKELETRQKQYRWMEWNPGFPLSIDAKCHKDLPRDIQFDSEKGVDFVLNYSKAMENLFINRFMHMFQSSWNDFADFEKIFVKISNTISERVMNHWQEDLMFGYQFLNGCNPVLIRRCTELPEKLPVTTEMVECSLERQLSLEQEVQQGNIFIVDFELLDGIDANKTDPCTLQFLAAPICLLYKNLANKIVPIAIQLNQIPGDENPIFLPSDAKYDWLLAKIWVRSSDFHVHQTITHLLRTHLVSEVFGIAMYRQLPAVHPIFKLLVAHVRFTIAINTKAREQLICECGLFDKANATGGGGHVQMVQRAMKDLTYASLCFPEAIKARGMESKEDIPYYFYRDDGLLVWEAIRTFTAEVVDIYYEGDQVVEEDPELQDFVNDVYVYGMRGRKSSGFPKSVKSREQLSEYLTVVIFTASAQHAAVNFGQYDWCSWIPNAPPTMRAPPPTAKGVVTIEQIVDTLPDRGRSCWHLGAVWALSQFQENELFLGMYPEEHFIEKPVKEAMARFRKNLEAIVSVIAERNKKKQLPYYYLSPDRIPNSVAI
The data set is described as follows: 5-LO product formation in activated PMNL. The data set is classed as cell-based. On the set-up: Freshly isolated PMNL (1 × 10^7); endogenous in cells; host or cells: human PMNL freshly isolated from leukocyte concentrates. An excerpt:
Human PMNL, monocytes, PBMC, and platelets were freshly isolated from leukocyte concentrates. The protocols for experiments with human blood and blood cells were approved by the ethical commission of the Friedrich-Schiller-University Jena. […] PMNL were recovered from the pellet after hypotonic lysis of erythrocytes. Platelets were obtained from the supernatant and washed with PBS pH 5.9/0.9% NaCl (1:1). […]

Usually IC50 stands for the point on the concentration scale where inhibition reaches its midpoint. Low readings indicate greater potency in that assay, high ones weaker potency in that assay.

The structures appear in SMILES notation. Where only a bound is given, the exact number is not on record here.

T2 sequence (P23219 24-599): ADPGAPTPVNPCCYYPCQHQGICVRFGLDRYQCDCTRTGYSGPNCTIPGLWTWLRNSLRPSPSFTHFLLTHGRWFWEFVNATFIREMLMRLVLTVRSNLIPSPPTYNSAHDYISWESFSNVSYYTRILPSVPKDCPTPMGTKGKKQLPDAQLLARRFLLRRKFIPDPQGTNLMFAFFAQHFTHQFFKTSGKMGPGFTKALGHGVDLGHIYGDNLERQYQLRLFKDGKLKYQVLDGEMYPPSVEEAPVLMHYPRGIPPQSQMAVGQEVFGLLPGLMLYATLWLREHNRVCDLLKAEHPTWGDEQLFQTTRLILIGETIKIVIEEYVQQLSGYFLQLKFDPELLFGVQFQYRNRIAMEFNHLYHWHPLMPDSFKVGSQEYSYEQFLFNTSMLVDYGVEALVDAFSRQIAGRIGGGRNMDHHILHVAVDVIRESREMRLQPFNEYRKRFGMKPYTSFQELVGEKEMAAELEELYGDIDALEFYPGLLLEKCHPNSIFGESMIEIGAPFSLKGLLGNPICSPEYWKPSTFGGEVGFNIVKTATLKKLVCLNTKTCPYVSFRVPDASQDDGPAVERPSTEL

Consider `Cc1c(C)c2c(c(C)c1O)CC[C@@](C)(CCCC(C)CCCC(C)CCCC(C)C(=O)O)O2` (stereo partly drawn) [4a, 13-((2R)-6-hydroxy-2,5,7,8-tetramethylchroman-2-yl)-2,6,10-trimethyltridecanoic acid], for which the IC50 at bovine COX-1 was more than 10 µM; against COX-1 it was 6.9 µM; at 5-LO, 0.08 µM. In the data set on intracellular Ca^2+, the “effect on intracellular Ca^2+” value is given as “neither affected”. Further, the “intracellular concentration reached in PMNL” value in the data set on PMNL is on record as “micromolar”.
